Data taken from patent publication US20090306149A1, “USE OF BIARYLCARBOXAMIES IN THE TREATMENT OF HEDGEHOG PATHWAY-RELATED DISORDERS” (priority 2006, published 2009).
Like-named read-outs stand apart in the source and are kept apart here.

Columns and labels:
[1] = test system: gli-luciferase activity (Hh pathway) in TMHh12 cells; test: "IC50 shift" gli-luciferase reporter assay in TMHh12 cells with a small molecule Smo agonist; format: cell-based, mouse; conditions: Mus musculus, TMHh12, TMHh12 cells
Procedure: (§1) TM3 cells (mouse) transfected with a new proprietary reporter construct (pTA-8xGli-Luc). The pTA-8xGli-Luc reporter produces approx. 4 fold more luciferase activity than classical 8xGli-LUC. A highly responsive stable clone has been selected (TMHh12) with >10-fold signal/noise ratio and <10% CV in 384 well format.
“IC50 shift” assays in TMHh12 cells. IC50 for antagonism of gli-luciferase activity was tested in the presence of increasing concentrations of a small molecule agonist which binds to Smo with 1 nM affinity and activates the Hh pathway.
Table 1 lists the IC50 of antagonists determined in the presence of different (1 nM and 25 nM) concentrations of a small agonist of Smoothened.

[2] = target: Smoothened (Homo sapiens, UniProt Q99835); test: Smo binding assay, displacement of a small molecule agonist of Smoothened, filter binding format
Chain of Smoothened (Q99835 28-787): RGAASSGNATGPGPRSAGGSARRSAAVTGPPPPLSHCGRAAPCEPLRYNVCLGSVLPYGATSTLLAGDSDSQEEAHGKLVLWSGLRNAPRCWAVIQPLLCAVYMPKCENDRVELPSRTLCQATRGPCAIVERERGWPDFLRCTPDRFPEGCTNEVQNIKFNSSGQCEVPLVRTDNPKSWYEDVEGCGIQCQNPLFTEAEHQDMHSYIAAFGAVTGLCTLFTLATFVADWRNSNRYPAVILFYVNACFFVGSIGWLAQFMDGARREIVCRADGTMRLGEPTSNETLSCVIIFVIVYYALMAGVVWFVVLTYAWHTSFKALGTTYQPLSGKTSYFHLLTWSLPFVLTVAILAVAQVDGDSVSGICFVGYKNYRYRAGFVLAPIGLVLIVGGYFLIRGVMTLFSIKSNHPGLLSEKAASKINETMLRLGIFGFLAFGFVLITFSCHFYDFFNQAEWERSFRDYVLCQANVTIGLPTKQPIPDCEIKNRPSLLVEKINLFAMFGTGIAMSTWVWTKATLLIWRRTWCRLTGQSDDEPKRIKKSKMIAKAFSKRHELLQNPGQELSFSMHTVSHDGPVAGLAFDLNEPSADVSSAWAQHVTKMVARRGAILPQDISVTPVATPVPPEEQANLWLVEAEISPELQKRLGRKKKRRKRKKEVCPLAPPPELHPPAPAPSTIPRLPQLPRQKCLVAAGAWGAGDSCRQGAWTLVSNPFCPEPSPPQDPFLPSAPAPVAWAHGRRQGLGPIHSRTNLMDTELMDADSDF
From the text: A Smo binding assay was developed using radio-labeled smoothened agonist for compound competition.
Table 1, infra; lists the IC50 for displacement of a small molecule agonist of Smoothened determined in a filter binding format.

[3] = test system: Shh-mediated pathway activation (Gli-luciferase activity of TMHh12 cells); test: Gli-Luc reporter assay for Hh pathway inhibition in TMHh12 cells in the presence of Shh protein; format: cell-based; conditions: Mus musculus, read-out: EC50 to block Shh-mediated pathway activation
Procedure: as §1
Gli-Luc Reporter Assay for Hh Pathway Inhibition
Gli-luciferase activity of TMHh12 cells was determined in the presence of Shh protein.

[4] = 1 nM small molecule Smo agonist, read-out: Gli_luc (1 nM Smo agonist) IC50
[5] = 25 nM small molecule Smo agonist, read-out: Gli_luc (25 nM Smo agonist) IC50

Compound	IC50 [1, 4]	IC50 [1, 5]	IC50 [2]	EC50 [3]
COC(=O)NC(CNC1Cc2ccc(NC(=O)c3cccc(C)c3-c3ccc(C(F)(F)F)cc3)cc2C1)Cc1ccccc1 (centres unmarked) [Example 49]	226 nM	2680 nM	118 nM	–
Cc1cccc(C(=O)Nc2ccc3c(c2)CC(NCc2ccccn2)C3)c1-c1ccc(C(F)(F)F)cc1 (centres unmarked) [Example 45]	85 nM	1140 nM	141 nM	–
Cc1cccc(C(=O)Nc2ccc3c(c2)CC(NCc2ccoc2)C3)c1-c1ccc(C(F)(F)F)cc1 (centres unmarked) [Example 63]	686 nM	14000 nM	493 nM	–
Cc1cccc(C(=O)Nc2ccc3c(c2)CC(NCC2CCCCC2)C3)c1-c1ccc(C(F)(F)F)cc1 (centres unmarked) [Example 50]	901 nM	11900 nM	621 nM	–
CC(=O)Nc1ccc(CN[C@H]2Cc3ccc(NC(=O)c4cccc(C)c4-c4ccc(C(F)(F)F)cc4)cc3C2)cc1 [Example 22]	456 nM	3260 nM	444 nM	–
Cc1cccc(C(=O)Nc2ccc3c(c2)C[C@@H](NCc2scnc2C)C3)c1-c1ccc(C(F)(F)F)cc1 [Example 10]	290 nM	1340 nM	137 nM	–
Cc1cccc(C(=O)Nc2ccc3c(c2)CC(NCc2ccccc2F)C3)c1-c1ccc(C(F)(F)F)cc1 (centres unmarked) [Example 71]	5 nM	235 nM	11 nM	–
Cc1cccc(C(=O)Nc2ccc3c(c2)CC(NCc2nccn2C)C3)c1-c1ccc(C(F)(F)F)cc1 (centres unmarked) [Example 40]	145 nM	1910 nM	445 nM	–
O=C(Nc1ccc2c(c1)CC(NCc1ncc[nH]1)C2)c1cccc(C(F)(F)F)c1-c1ccc(C(F)(F)F)cc1 (centres unmarked) [Example 60]	13200 nM	23600 nM	3650 nM	–
Cc1cccc(C(=O)Nc2ccc3c(c2)C[C@@H](NCc2ccco2)C3)c1-c1ccc(C(F)(F)F)cc1 [Example 11]	< 5 nM	371 nM	14 nM	–
Cc1cccc(C(=O)Nc2ccc3c(c2)CC(NCc2cccnc2)C3)c1-c1ccc(C(F)(F)F)cc1 (centres unmarked) [Example 66]	246 nM	10000 nM	593 nM	–
Cc1cccc(C(=O)Nc2ccc3c(c2)CCC(NCc2ccccc2)CC3)c1-c1ccc(Cl)cc1 (centres unmarked) [Example 69]	2490 nM	12600 nM	619 nM	–
Cc1cccc(C(=O)Nc2ccc3c(c2)CC(NCc2cc4ccccc4o2)C3)c1-c1ccc(C(F)(F)F)cc1 (centres unmarked) [Example 41]	82 nM	616 nM	3 nM	–
Cc1cccc(C(=O)Nc2ccc3c(c2)CC(NCc2cccn2C)C3)c1-c1ccc(C(F)(F)F)cc1 (centres unmarked) [Example 59]	112 nM	3490 nM	21 nM	–
Cc1cccc(C(=O)Nc2ccc3c(c2)C[C@@H](NCc2ccc(-n4ccnc4)cc2)C3)c1-c1ccc(C(F)(F)F)cc1 [Example 28]	12 nM	481 nM	2 nM	–
Cc1cccc(C(=O)Nc2ccc3c(c2)C[C@@H](NCc2cccn2C)C3)c1-c1ccc(C(F)(F)F)cc1 [Example 15]	< 5 nM	479 nM	18 nM	–
Cc1cccc(C(=O)Nc2ccc3c(c2)CCC(NS(C)(=O)=O)CC3)c1-c1ccc(C(F)(F)F)cc1 (centres unmarked) [Example 103]	4780 nM	10200 nM	3200 nM	–
Cc1cccc(C(=O)Nc2ccc3c(c2)CC(NCc2ccco2)C3)c1-c1ccc(C(F)(F)F)cc1 (centres unmarked) [Example 62]	141 nM	1630 nM	103 nM	–

Compound	IC50 [1, 4]	IC50 [1, 5]	IC50 [2]	EC50 [3]
Cc1ccc(CN[C@H]2Cc3ccc(NC(=O)c4cccc(C)c4-c4ccc(C(F)(F)F)cc4)cc3C2)o1 [Example 12]	< 5 nM	141 nM	4 nM	–
Cc1cccc(C(=O)Nc2ccc3c(c2)C[C@@H](N(C)Cc2ccccn2)C3)c1-c1ccc(C(F)(F)F)cc1 [Example 38]	1720 nM	13300 nM	6250 nM	–
Cc1cccc(C(=O)Nc2ccc3c(c2)C[C@@H](NCc2cnc4ccccc4c2)C3)c1-c1ccc(C(F)(F)F)cc1 [Example 29]	1670 nM	4920 nM	490 nM	–
Cc1cccc(C(=O)Nc2ccc3c(c2)CCC(NCc2ccccn2)CC3)c1-c1ccc(C(F)(F)F)cc1 (centres unmarked) [Example 68]	138 nM	4860 nM	367 nM	–
Cc1ccc(C(=O)Nc2ccc3c(c2)C[C@H](NCc2ccccn2)C3)c(-c2ccccc2)c1 [Example 73]	99 nM	2240 nM	936 nM	–
Cc1ccc(-c2ccc(C(F)(F)F)cc2)c(C(=O)Nc2ccc3c(c2)CC(NCc2ccccn2)C3)c1 (centres unmarked) [Example 54]	8680 nM	6800 nM	16700 nM	–
Cc1csc(CN[C@H]2Cc3ccc(NC(=O)c4cccc(C)c4-c4ccc(C(F)(F)F)cc4)cc3C2)n1 [Example 5, 6-Methyl-4′-trifluoromethyl-biphenyl-2-carboxylic acid {(S)-2-[(4-methyl-thiazol-2-ylmethyl)-amino]-indan-5-yl}-amide]	< 5 nM	139 nM	3 nM	–
Cc1cccc(C(=O)Nc2ccc3c(c2)CCC(NS(=O)(=O)c2ccccc2F)CC3)c1-c1ccc(C(F)(F)F)cc1 (centres unmarked) [Example 106]	5960 nM	–	330 nM	–
COc1ccc(OC)c(CN[C@H]2Cc3ccc(NC(=O)c4cccc(C)c4-c4ccc(C(F)(F)F)cc4)cc3C2)c1 [Example 21]	254 nM	646 nM	1 nM	–
Cc1cccc(C(=O)Nc2ccc3c(c2)C[C@@H](NCc2ccccn2)C3)c1-c1ccc(C(F)(F)F)cc1 [Example 6, 6-Methyl-4′-trifluoromethyl-biphenyl-2-carboxylic acid {(S)-2-[(pyridin-2-ylmethyl)-amino]-indan-5-yl}-amide]	19 nM	279 nM	15 nM	9.4 nM
Cc1cccc(C(=O)Nc2ccc3c(c2)CC(NCc2ccncc2)C3)c1-c1ccc(C(F)(F)F)cc1 (centres unmarked) [Example 67]	142 nM	4190 nM	486 nM	–
Cc1cccc(C(=O)Nc2ccc3c(c2)CC(NCc2c[nH]c4ccccc24)C3)c1-c1ccc(C(F)(F)F)cc1 (centres unmarked) [Example 61]	2100 nM	11900 nM	299 nM	–
COc1ccc(CN[C@H]2Cc3ccc(NC(=O)c4cccc(C)c4-c4ccc(C(F)(F)F)cc4)cc3C2)cn1 [Example 32]	261 nM	2860 nM	130 nM	–
Cc1cccc(C(=O)Nc2ccc3c(c2)C[C@@H](NCc2ccc(Cl)s2)C3)c1-c1ccc(C(F)(F)F)cc1 [Example 26]	35 nM	458 nM	8 nM	–
COc1ccc(CN[C@H]2Cc3ccc(NC(=O)c4cccc(C)c4-c4ccc(C(F)(F)F)cc4)cc3C2)cc1 [Example 23]	349 nM	3040 nM	93 nM	–
Cc1cccc(C(=O)Nc2ccc3c(c2)CCC(NS(=O)(=O)c2cccs2)CC3)c1-c1ccc(C(F)(F)F)cc1 (centres unmarked) [Example 105]	833 nM	20400 nM	338 nM	–
CCCCS(=O)(=O)NC1Cc2ccc(NC(=O)c3cccc(C)c3-c3ccc(C(F)(F)F)cc3)cc2C1 (centres unmarked) [Example 102]	1900 nM	–	217 nM	–
